Data published in patent publication US20030060498A1, “5-arylsulfonyl indoles useful for treating disease” (priority 2001, published 2003).
Where a name gives a salt, the structure may show the parent alone. Read-outs that look alike come from different tables or passages of the source.

What was measured:
[1] = target: T1, cloned human 5-HT6 receptor (Homo sapiens, UniProt P50406); test: 5-HT6 receptor binding assay ([3H]-LSD radioligand, SPA beads)
T1 construct: host or cells: HeLa cells (G-418 selection); membrane preparation
T1 sequence (P50406 whole entry): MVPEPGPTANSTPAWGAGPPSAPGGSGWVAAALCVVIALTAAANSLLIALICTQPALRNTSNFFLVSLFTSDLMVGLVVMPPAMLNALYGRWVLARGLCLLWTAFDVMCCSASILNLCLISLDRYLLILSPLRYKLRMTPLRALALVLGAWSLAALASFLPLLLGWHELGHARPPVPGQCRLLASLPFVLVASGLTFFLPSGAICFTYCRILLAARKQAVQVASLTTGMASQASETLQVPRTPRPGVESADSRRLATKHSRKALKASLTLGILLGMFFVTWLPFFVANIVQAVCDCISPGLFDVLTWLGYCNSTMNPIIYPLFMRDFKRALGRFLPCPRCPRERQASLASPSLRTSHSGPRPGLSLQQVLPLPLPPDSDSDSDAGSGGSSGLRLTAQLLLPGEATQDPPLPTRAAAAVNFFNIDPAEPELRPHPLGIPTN
Protocol: 5-HT6 Receport Binding Assay
Growth of Cells and Membrane Preparation:
Hela cells containing the cloned human 5-HT6 receptor were acquired from Dr. David R. Sibley's laboratory in National Institute of Health (see Sibley, D. R., J. Neurochemistry, 66, 47-56, 1996). Cells were grown in high glucose Dulbecco's modified Eagle's medium, supplemented with L-glutamine, 0.5% sodium pyruvate, 0.3% penicillin-streptomycin, 0.025% G-418 and 5% Gibco fetal bovine serum and then were harvested, when confluent, in cold phosphate buffered saline.
Harvested intact cells were washed once in cold phosphate-buffered saline. The cells were pelleted and resuspended in 100 ml of cold 50 mM Tris, 5 mM EDTA and 5 mM EGTA, pH 7.4. Homogenization was with a Vir Tishear generator, 4 cycles for 30 seconds each at setting 50. The homogenized cells were centrifuged at […] for 10 minutes and the supernatant was removed. The pellet was resuspended in 100 ml of the above buffer and rehomogenized for 2 cycles. The rehomogenized cells were then centrifuged at […] for 10 minutes and the supernatant was removed. The combined supernatant (200ml) was centrifuged at 23,000 RPM (80,000×g) for 1 hour in a Beckman Rotor (42.1 Ti). The membrane pellet was resuspended in […] of assay buffer containing HEPES 20 mM, MgCl2 10 mM, NaCl 150 mM, EDTA 1 mM, pH 7.4 and stored frozen in aliqouts at −70° C.
5-HT6 Receptor Binding Assay
The radioligand binding assay used [^3H]-lysergic acid diethylamide (LSD). The assay was carried out in Wallac 96-well sample plates by the addition of 11 μl of the test sample at the appropriate dilution (the assay employed 11 serial concentrations of samples run in duplicate), 11 μl of radioligand, and 178 μl of a washed mixture of WGA-coated SPA beads and membranes in binding buffer. The plates were shaken for about 5 minutes and then incubated at room temperature for 1 hour. The plates were then loaded into counting cassettes and counted in a Wallac MicroBeta Trilux scintillation counter.
Binding Constant (Ki) Determination
Eleven serial dilutions of test compounds were distributed to assay plates using the PE/Cetus Pro/Pette pipetter. These dilutions were, followed by radioligand and the bead-membrane mixture prepared as described above. The specifically bound cpm obtained were fit to a one-site binding model using GraphPad Prism ver. 3.0. Estimated IC50 values were converted to Ki values using the Cheng-Prusoff equation (Cheng, Y. C. et al., Biochem. Pharmacol., 22, 3099-108, 1973).

Ki ([1]; [3H]-LSD, membranes of Hela cells containing the cloned human 5-HT6 receptor, IC50 converted by Cheng-Prusoff, average, read-out: Ki) [nM] | Compound | melting point | Ki [1] [nM]
 | CNCCc1c(C)n(C)c2ccc(S(=O)(=O)c3cccc4ccccc34)cc12.Cl | > 141 °C (dec.) | 
 | Cc1[nH]c2ccc(S(=O)(=O)c3cccc4ccccc34)cc2c1CCN (as salt: hydrochloride) [Example 21, 2-[2-methyl-5-(1-naphthylsulfonyl)-1H-indol-3-yl]ethanamine Hydrochloride] | > 280 °C | 
 | Cl.Cn1cc(CCN)c2cc(S(=O)(=O)c3ccccc3)ccc21 [Example 1, 2-[1-methyl-5-(phenylsulfonyl)-1H-indol-3-yl]ethanamine Hydrochloride] | 285.3 to 292 °C | 1.5
 | Cc1[nH]c2ccc(S(=O)(=O)c3ccccc3)cc2c1CCN.Cl [Example 2, 2-[2-methyl-5-(phenylsulfonyl)-1H-indol-3-yl]ethanamine Hydrochloride] | > 280 °C | 38
 | CNCCc1c(C)[nH]c2ccc(S(=O)(=O)c3ccccc3)cc12 [Example 3, N-methyl-2-[2-methyl-5-(phenylsulfonyl)-1H-indol-3-yl]ethanamine] | 164.6 to 166 °C | 37
 | Cc1c(CCN)c2cc(S(=O)(=O)c3ccccc3)ccc2n1C.Cl [Example 4, 2-[1,2-dimethyl-5-(phenylsulfonyl)-1H-indol-3-yl]ethanamine Hydrochloride] | 155 to 158.3 °C | 4
 | CNCCc1c(C)n(C)c2ccc(S(=O)(=O)c3ccccc3)cc12.Cl [Example 5, 2-[1,2-dimethyl-5-(phenylsulfonyl)-1H-indol-3-yl]-N-methylethanamine Hydrochloride] | 266.8 to 268.2 °C | 9
 | Cc1c(CCN(C)C)c2cc(S(=O)(=O)c3ccccc3)ccc2n1C [Example 6, 2-[1,2-dimethyl-5-(phenylsulfonyl)-1H-indol-3-yl]-N,N-dimethylethanamine] | 169.6 to 171.9 °C | 1.8
 | Cc1ccc(S(=O)(=O)c2ccc3c(c2)c(CCN)cn3C)cc1.Cl [Example 7, 2-{1-methyl-5-[(4-methylphenyl)sulfonyl]-1H-indol-3-yl}ethanamine Hydrochloride] | 186.3 to 190.2 °C | 3.3
 | CNCCc1cn(C)c2ccc(S(=O)(=O)c3ccc(C)cc3)cc12.Cl [Example 8, N-methyl-2-{1-methyl-5-[(4-methylphenyl)sulfonyl]-1H-indol-3-yl}ethanamine hydrochloride] | 275 to 277.6 °C | 7.6
 | Cc1ccc(S(=O)(=O)c2ccc3[nH]c(C)c(CCN)c3c2)cc1.Cl [Example 9, 2-{2-methyl-5-[(4-methylphenyl)sulfonyl]-1H-indol-3-yl}ethanamine Hydrochloride] | > 275 °C | 308
 | Cc1ccc(S(=O)(=O)c2ccc3c(c2)c(CCN)c(C)n3C)cc1.Cl [Example 10, 2-{1,2-dimethyl-5-[(4-methylphenyl)sulfonyl]-1H-indol-3-yl}ethanamine Hydrochloride] | 168 to 172 °C | 22
 | CNCCc1c(C)n(C)c2ccc(S(=O)(=O)c3ccc(C)cc3)cc12.Cl [Example 11, 2-{1,2-dimethyl-5-[(4-methylphenyl)sulfonyl]-1H-indol-3-yl}-N-methylethanamine Hydrochloride] | 259.7 to 262.3 °C | 15
146 | Cc1[nH]c2ccc(S(=O)(=O)c3ccc(C(F)(F)F)cc3)cc2c1CCN.Cl [Example 12, 2-(2-methyl-5-{[4-(trifluoromethyl)phenyl]sulfonyl}-1H-indol-3-yl)ethanamine Hydrochloride] | > 275 °C | 
 | Cc1c(CCN)c2cc(S(=O)(=O)c3ccc(C(F)(F)F)cc3)ccc2n1C.Cl [Example 13, 2-(1,2-dimethyl-5-{[4-(trifluoromethyl)phenyl]sulfonyl}-1H-indol-3-yl)ethanamine Hydrochloride] | > 280 °C | 36
 | CNCCc1c(C)n(C)c2ccc(S(=O)(=O)c3ccc(C(F)(F)F)cc3)cc12.Cl [Example 14, 2-(1,2-dimethyl-5-{[4-(trifluoromethyl)phenyl]sulfonyl}-1H-indol-3-yl)-N-methylethanamine Hydrochloride] | 189.1 to 193.7 °C | 18
 | COc1cccc(S(=O)(=O)c2ccc3[nH]c(C)c(CCN)c3c2)c1.Cl [Example 15, 2-{5-[(3-methoxyphenyl)sulfonyl]-2-methyl-1H-indol-3-yl}ethanamine Hydrochloride] | 300 to 302 °C | 209
 | COc1cccc(S(=O)(=O)c2ccc3c(c2)c(CCN)c(C)n3C)c1.Cl [Example 16, 2-{5-[(3-methoxyphenyl)sulfonyl]-1,2-dimethyl-1H-indol-3-yl}ethanamine Hydrochloride] | 269.5 to 272.4 °C | 3.4
 | CNCCc1c(C)n(C)c2ccc(S(=O)(=O)c3cccc(OC)c3)cc12.Cl [Example 17, 2-{5-[(3-methoxyphenyl)sulfonyl]-1,2-dimethyl-1H-indol-3-yl}-N-methylethanamine Hydrochloride] | 192.4 to 196 °C | 10
 | Cc1[nH]c2ccc(S(=O)(=O)c3cc(F)cc(F)c3)cc2c1CCN.Cl [Example 18, 2-{5-[(3,5-difluorophenyl)sulfonyl]-2-methyl-1H-indol-3-yl}ethanamine Hydrochloride] | > 280 °C | 66
 | Cc1c(CCN)c2cc(S(=O)(=O)c3cc(F)cc(F)c3)ccc2n1C.Cl [Example 19, 2-{5-[(3,5-difluorophenyl)sulfonyl]-1,2-dimethyl-1H-indol-3-yl}ethanamine Hydrochloride] | 288.6 to 290.5 °C | 5.6
 | CNCCc1c(C)n(C)c2ccc(S(=O)(=O)c3cc(F)cc(F)c3)cc12.Cl [Example 20, 2-{5-[(3,5-difluorophenyl)sulfonyl]-1,2-dimethyl-1H-indol-3-yl}-N-methylethanamine Hydrochloride] | 253.5 to 257.8 °C | 4.6
 | Cc1[nH]c2ccc(S(=O)(=O)c3cccc4ccccc34)cc2c1CCN [Example 21, 2-[2-methyl-5-(1-naphthylsulfonyl)-1H-indol-3-yl]ethanamine Hydrochloride] |  | 0.9
 | Cc1c(CCN)c2cc(S(=O)(=O)c3cccc4ccccc34)ccc2n1C.Cl [Example 22, 2-[1,2-dimethyl-5-(1-naphthylsulfonyl)-1H-indol-3-yl]ethanamine Hydrochloride] | > 175 °C (dec.) | 3.1
